Source: patent publication US20100179225A1, “POI Prevention” (CYTOKINE PHARMASCIENCES, INC., priority 2008, published 2010)

Key:
nitric oxide in serum = experiment: Nitrite and nitrate in serum after small intestinal transplantation (Nitrate/Nitrite Colorimetric Assay kit); type: in vivo, Lewis rats; details: 1 mg/kg i.v.
Description: (§1) Syngeneic orthotopic small intestinal transplantation was performed in Lewis rats as previously described (Schwarz N T, Nakao A, Nalesnik M A, Kalff J C, Murase N, Bauer A J. Protective effects of ex vivo graft radiation and tacrolimus on syngeneic transplanted rat small bowel motility. Surgery 2002; 131: 413-423). […] Then the graft vascular bed was perfused with chilled UW solution (University of Wisconcin) and the intestinal lumen was irrigated with 50 ml cold 0.9% NaCl solution containing […]. neomycin sulfate (Uro Nebacetin N, Nycomed, Germany). The graft was stored in cold UW solution during the preparation of the recipient. An end-to-side anastomosis between the graft aorta and the recipient infra-renal aorta, and between the graft vein and recipient vena cava, was performed. Approximately 80% of the recipient intestine was removed and enteric continuity was restored by proximal and distal end-to-end intestinal anastomoses.
(§2) To investigate the effect of CPSI-2364 on postoperative small bowel ischemia/reperfusion injury and muscular function, CPSI-2364 (1 mg/kg bodyweight, solved in 2.5% mannitol) or vehicle (2.5% mannitol) were administered intravenously once to the donor and the recipient 90 minutes before the beginning of the organ retrieval operation as well as the transplantation procedure that was described above. […]

IL-6 = experiment: Serum IL-6 after small intestinal transplantation (ELISA); type: in vivo, Lewis rats; details: 1 mg/kg i.v.
Description: as §1, §2

JNK/SAPK = details: v-myc immortalized spleen derived macrophage cell line; Lowenberg et al. J Immunol 2005; cited from earlier work

## C/C(=N\NC(=N)N)c1cc(NC(=O)CCCCCCCCC(=O)Nc2cc(/C(C)=N/NC(=N)N)cc(/C(C)=N/NC(=N)N)c2)cc(/C(C)=N/NC(=N)N)c1 [Semapimod]
Nitric oxide in serum; 3 hours after reperfusion
  nitric oxide levels within the serum: 0.17 µmol/L
Nitric oxide in serum; 18 hours after reperfusion
  nitric oxide levels within the serum: 1.69 µmol/L
IL-6; after 3 hours
  release of IL-6 (serum): 345 pg/mL
IL-6; after 18 hours
  release of IL-6 (serum): 35 pg/mL
JNK/SAPK
  JNK/SAPK phosphorylation: reduce JNK/SAPK phosphorylation
